Reference: paper PMC10464297, “Reevaluation of bromodomain ligands targeting BAZ2A” (Protein Science : A Publication of the Protein Society, 2023)
“Also recorded” adds a separate entry of the source.

What was measured:
Type in all cases: cell-based
[1] = tested on: 22Rv1 (AR‐positive) PCa cells; assay: 2D proliferation assay (resazurin), 22Rv1
Procedure: Cell cultures, proliferation assay and spheroid gro wth
PC3 and 22Rv1 cells were cultured in RPMI 1640 medium containing 10% FBS, 1% penicillin-streptomycin and 2 m M L-glutamine. All cells were regularly tested for mycoplasma contamination.
For the proliferation assay, cells were counted with a hemocytometer and seeded in triplicates in 96-well plates (4 .5x10^3 cells/well for 22Rv1 and 2.0x103 for PC3) and let adhere overnight at 37°C, 5% CO2. The following day, the medium was replaced with RPMI 1640 containing either the carrier […]
(§1) transfected with siRNA for BAZ2A , RLUC or KIF11, as detailed below. The cells were incubated for 1, 3, 6 (PC3) and 9 days (22Rv1) and the medium containing either the carrier or the inhibitors was replaced every 3 day s. Cell proliferation and viability were determined at day 1, 3, 6 and 9 by adding 10% resazurin sodium salt solution (0. 03 mg/ml powder from Sigma -Aldrich) directly into each well and incubating them for 4h at 37°C, 5% CO 2. The absorbance at 570/600 nm was measured using a Varioskan plate reader. The reduction of the resazur in sodium salt was calculated using the formula: (Abs x – Abs 0. 1%DMSO day1)/(Abs 0. 1%DMSO day9 - Abs 0. 1%DMSO day1). The growth rate was analysed using the linear regression algorithm of GraphPad Prism. […]

[2] = tested on: PC3 (AR‐negative) PCa cells; assay: 2D proliferation assay (resazurin), PC3
Procedure: (§2) Cell cultures, proliferation assay and spheroid gro wth […]
streptomycin and 2 m M L-glutamine. All cells were regularly tested for mycoplasma contamination.
For the proliferation assay, cells were counted with a hemocytometer and seeded in triplicates in 96-well plates (4 .5x10^3 cells/well for 22Rv1 and 2.0x103 for PC3) and let adhere overnight at 37°C, […]
as §1

[3] = tested on: PC3 spheroids; assay: Spheroid growth (3D), PC3
Procedure: as §2
streptomycin and 2 m M L-glutamine. All cells were regularly tested for mycoplasma contamination. […]
Spheroids were obtained by plating PC3 and 22Rv1 cells in low -adhesion round bottom 96 -well […]
After seeding, the cells were centrifuged for 10 min at 1200 x g at 4°C. Spheroids were given 48 hours to form after seeding before adding the treatment or the carrier (0.1% DMSO). Medium supplemented with treatment/carrier was changed every 48 hours, for a total of 32 days for 22Rv1 and 16 days for PC3. Each spheroid was imaged in brightfield every day or every other day (after day 20), using a Leica DM IL microscope […]
equipped with a Leica DFC450C digital camera. The area of each spheroid was measured using ImageJ and the average area for each condition was calculated. The growth rate was analysed using the segmental linear regression algorithm of GraphPad Prism. The appropriateness of the model was evaluated by considering the R square values and the Replicates test (Suppl. Table 6). […]

Cn1cc(CCn2cnc(-c3cnn(C)c3)c2-c2ccc(C#N)cc2)cn1 [BAZ2‐ICR]
effect on 2D growth of 22Rv1 cells ([1]; 2D‐cell culture, 22Rv1): did not affect growth; also recorded: but not BAZ2‐ICR, reduces 2D growth
effect on viability of 22Rv1 cells ([1]; 2D‐cell culture, 22Rv1): did not affect growth or viability
Slope (best-fit, linear regression of growth curve) ([1]; 22Rv1, 0.5 µM): 0,1041
Slope (best-fit, linear regression of growth curve) ([1]; 22Rv1, 5 µM): 0,1046
Slope (best-fit, linear regression of growth curve) ([1]; 22Rv1, 10 µM): 0,1034
Slope (best-fit, linear regression of growth curve) ([1]; 22Rv1, 25 µM): 0,1066
effect on 2D growth of PC3 cells ([2]; 2D‐cell culture, PC3): did not affect growth; also recorded: but not BAZ2‐ICR, reduces 2D growth
effect on viability of PC3 cells ([2]; 2D‐cell culture, PC3): did not affect growth or viability
Slope (best-fit, linear regression of growth curve) ([2]; PC3, 0.5 µM): 0,1625
Slope (best-fit, linear regression of growth curve) ([2]; PC3, 5 µM): 0,1599
Slope (best-fit, linear regression of growth curve) ([2]; PC3, 10 µM): 0,1532
Slope (best-fit, linear regression of growth curve) ([2]; PC3, 25 µM): 0,1580
effect on growth of PC3 spheroids ([3]; 3D setting, GSK2801 25 μM, BAZ2‐ICR 25 μM, BI9564 20 μM): did not significantly affect PC3 spheroids
slope2 (segmental linear regression of spheroid growth) ([3]; PC3 spheroids, 25 µM, after X0 = day 6): 77288
slope1 (segmental linear regression of spheroid growth) ([3]; PC3 spheroids, 25 µM, before X0 = day 6): 62282
